Test results as given in the supplement of paper PMC3974653.
Structures can show the parent of a compound that is named as a salt.

What follows are compounds tested on MTT (mouse pheochromocytoma) (assay: IC50 of cell viability (ATP content)). Settings: (24 or 48 h).
Procedure, shortened: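 After overnight culture at 37°C, 5% CO2 in white 1536-well plates, MTT mouse pheochromocytoma cells were given 23 nl of library compound in DMSO by pintool across 8 concentrations, spanning final 0.5 nM to 46 µM. Following 24 or 48 hrs, CellTiter-Glo luminescence was read after 15 minutes and normalised against positive-control (100%) and DMSO (0%) wells. A four-parameter logistic model provided the IC50.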
With `C[C@H]1[C@@H]2Cc3ccc(O)cc3[C@]1(C)CCN2CCc1ccccc1` [(+)-Phenazocine] the “IC50 of cell viability” value was > 46 µM.
For `COc1cc2c3cc1Oc1cc(ccc1O)C[C@@H]1c4c(cc(OC)c(O)c4Oc4ccc(cc4)C[C@@H]3N(C)CC2)CC[N+]1(C)C` [(+)-TUBOCURARINE], the “IC50 of cell viability” value was > 46 µM.
In the case of `C[C@@H](N)[C@@H](O)c1ccc(O)c(O)c1` [(-)3,4-DIHYDROXYNOREPHEDRINE], the “IC50 of cell viability” value is reported as > 46 µM.
For `CC(C)(C)NC[C@H](O)COc1cccc2c1CCCC2=O` [(-) -Levobunolol hydrochloride], the “IC50 of cell viability” value was > 46 µM.
For `CN1C(=O)CC[C@H]1c1cccnc1` [(-)-COTININE], the “IC50 of cell viability” value was > 46 µM.
For `CCCN1CCC[C@@H]2Cc3n[nH]cc3C[C@H]21` [(-)-QUINPIROLE], the “IC50 of cell viability” value was > 46 µM.
In the case of `COc1cc(CC(C)N)cc(OC)c1OC` (stereo unspecified) [(?)-3,4,5-Trimethoxyamphetamine], the “IC50 of cell viability” value is reported as > 46 µM.
In the case of `CNC(C)Cc1ccc2c(c1)OCO2` (stereo unspecified) [(?)-3,4-Methylenedioxymethamphetamine], the “IC50 of cell viability” value is reported as > 46 µM.
`COc1cc(CC(C)N)cc2c1OCO2` (stereo unspecified) [(?)-3-Methoxy-4,5-methylenedioxyamphetamine] was tested, and the “IC50 of cell viability” value was > 46 µM.
In the case of `CC(CC(C#N)(c1ccccc1)c1ccccc1)N(C)C` (stereo unspecified) [(?)-4-Dimethylamino-2,2-diphenylvaleronitrile], the “IC50 of cell viability” value is reported as > 46 µM.
With `CCC1(CCC(C)C)C(=O)NC(=O)NC1=O` [(?)-Amobarbital] the “IC50 of cell viability” value was > 46 µM.
`Clc1ccc([C@H]2CC3CCC2N3)cn1` (stereo partly specified) [(?)-Epibatidine] was tested, and the “IC50 of cell viability” value was > 46 µM.
With `CNC(C)Cc1ccccc1` (stereo unspecified) [(?)-Methamphetamine] the “IC50 of cell viability” value was > 46 µM.
In the case of `CCNC(C)Cc1ccc2c(c1)OCO2` (stereo unspecified) [(?)-N-Ethyl-3,4-methylenedioxyamphetamine], the “IC50 of cell viability” value is reported as > 46 µM.
In the case of `CC(Cc1ccc2c(c1)OCO2)NO` (stereo unspecified) [(?)-N-Hydroxy-3,4-methylenedioxyamphetamine], the “IC50 of cell viability” value is reported as > 46 µM.
In the case of `CN1CCN(C2Cc3ccccc3Sc3ccc(Cl)cc32)CC1.O=C(O)/C=C\C(=O)O` (stereo unspecified) [(?)-Octoclothepin maleate], the “IC50 of cell viability” value is reported as > 46 µM.
In the case of `OC1\N=C(C2=CC=CC=C2)/C3=CC(=CC=C3NC1=O)Cl` (stereo unspecified) [(?)-Oxazepam], the “IC50 of cell viability” value is reported as > 46 µM.
For `CC1\N=C(N)/OC1C2=CC=CC=C2` (stereo not drawn) [(?)-cis-(4RS,5SR)-2-Amino-4-methyl-5-phenyl-2-oxazoline], the “IC50 of cell viability” value was > 46 µM.
For `NC/C=C/C(=O)O` [(E)-4-amino-2-butenoic acid], the “IC50 of cell viability” value was > 46 µM.
`O=c1[nH]c(=O)n([C@H]2C[C@H](O)[C@@H](CO)O2)cc1/C=C/Br` [(E)-5-(2-Bromovinyl)-2'-deoxyuridine] was tested, and the “IC50 of cell viability” value was > 46 µM.
For `CCCCCC[C@@H](CCC)C(=O)O` [(R)-2-Propyloctanoic acid (Arundic Acid)], the “IC50 of cell viability” value was > 46 µM.
With `CC(N)C(=O)c1ccccc1` [(R)-(+)-Cathinone] the “IC50 of cell viability” value was > 46 µM.
`CCCC1([C@H](O)C/C=C/[C@H]2[C@H](O)CC(=O)[C@@H]2CCCCCCC(=O)OC)CCC1` [(R)-Butaprost] was tested, and the “IC50 of cell viability” value was > 46 µM.
`C[C@H](C1=NC=CC=C1)C/2=C(CCN(C)C)/CC3=CC=CC=C23` [(S)-(+)-Dimethindene maleate] was tested, and the “IC50 of cell viability” value was > 46 µM.
`C[C@H](N)C(=O)c1ccccc1` [(S)-(-)-Cathinone] was tested, and the “IC50 of cell viability” value was > 46 µM.
In the case of `CSCCC(NC(=O)[C@H](Cc1c[nH]c2ccccc12)NC(=O)CNC(=O)[C@H](CCSC)NC(=O)[C@H](Cc1ccc(O[S+](=O)([O-])O)cc1)NC(=O)[C@@H](N)CC(=O)O)C(=O)N[C@@H](CC(=O)O)C(=O)N[C@@H](Cc1ccccc1)C(N)=O` (stereo partly specified) [(Tyr[SO3H]27)Cholecystokinin fragment 26-33 Amide], the “IC50 of cell viability” value is reported as > 46 µM.
With `C[C@@H]1CCC[C@H](C)N1` [(cis-) Nanophine] the “IC50 of cell viability” value was > 46 µM.
`COc1ccc2c(c1OC)CN1CCc3cc4c(cc3[C@H]1C2)OCO4` [(d,l)-Tetrahydroberberine] was tested, and the “IC50 of cell viability” value was > 46 µM.
With `C\C1=C(/C)C(=O)\C(=C(\C)C1=O)CCCCC#CCCCC#CCO` [AA-861] the “IC50 of cell viability” value was > 46 µM.
For `Nc1nc(NC2CC2)c2ncn([C@H]3C=C[C@@H](CO)C3)c2n1` [ABACAVIR SULFATE], the “IC50 of cell viability” value was > 46 µM.
`CC(=O)NCCCS(=O)(=O)[O-]` [ACAMPROSATE CALCIUM] was tested, and the “IC50 of cell viability” value was > 46 µM.
With `CCN(CC)CCNC(C(=O)OCCC(C)C)c1ccccc1` (stereo unspecified) [ACAMYLOPHENINE HYDROCHLORIDE] the “IC50 of cell viability” value was > 46 µM.
With `CCN(CC)CCNC(=O)c1ccc(NC(C)=O)cc1.Cl` [ACECAINIDE HYDROCHLORIDE] the “IC50 of cell viability” value was > 46 µM.
With `CC(=O)OC1CN2CCC1CC2` (stereo unspecified) [ACECLIDINE] the “IC50 of cell viability” value was > 46 µM.
`CC(=O)O[C@@H]1C(=O)O[C@H]2[C@@H]1OC(=O)[C@@H]2OC(C)=O` [ACEGLATONE] was tested, and the “IC50 of cell viability” value was > 46 µM.
With `CC(=O)Nc1ccc(OC(=O)c2ccccc2O)cc1` [ACETAMINOSALOL] the “IC50 of cell viability” value was > 46 µM.
With `CC(=O)Nc1cc([As](=O)(O)O)ccc1O` [ACETARSOL] the “IC50 of cell viability” value was > 46 µM.
For `CC(=O)NO` [ACETOHYDROXAMIC ACID], the “IC50 of cell viability” value was > 46 µM.
In the case of `CC(=O)Nc1c(I)cc(I)c(C(=O)O)c1I` [ACETRIAZOIC ACID], the “IC50 of cell viability” value is reported as > 46 µM.
For `CC(=O)N[C@@H]1C(O)OC(CO)C(O)C1O` (stereo partly specified) [ACETYLGLUCOSAMINE], the “IC50 of cell viability” value was > 46 µM.
`CCC(C(=O)NC(=O)NC(C)=O)c1ccccc1` (stereo unspecified) [ACETYLPHENETURIDE (CRAMPOL)] was tested, and the “IC50 of cell viability” value was > 46 µM.
`CC(=O)NCCCCCC(=O)O` [ACEXAMIC ACID] was tested, and the “IC50 of cell viability” value was > 46 µM.
With `CC(=O)NC1[C@H](O)C[C@@](O)(C(=O)O)O[C@H]1[C@H](O)[C@H](O)CO` (stereo partly specified) [ACIDUM ACENEURAMICUM] the “IC50 of cell viability” value was > 46 µM.
`COc1ccc(C(=O)/C(Br)=C/C(=O)O)cc1` [ACIDUM BROMEBRICUM] was tested, and the “IC50 of cell viability” value was > 46 µM.
With `COc1cc(C(=O)NCCCCCC(=O)O)cc(OC)c1OC` [ACIDUM CAPOBENICUM] the “IC50 of cell viability” value was > 46 µM.
For `Cc1cccc(Nc2ncccc2C(=O)O)c1C` [ACIDUM NIXYLICUM], the “IC50 of cell viability” value was > 46 µM.
For `O=C(O)COc1ccc(C(=O)c2cccs2)c(Cl)c1Cl` [ACIDUM TIENILICUM], the “IC50 of cell viability” value was > 46 µM.
`COc1cc(C)c(/C=C/C(C)=C/C=C/C(C)=C/C(=O)O)c(C)c1C` [ACITRETIN] was tested, and the “IC50 of cell viability” value was > 46 µM.
`N[C@H]([C@@H]1C\C(=N/O1)Cl)C(O)=O` [ACIVICIN] was tested, and the “IC50 of cell viability” value was > 46 µM.
`CCN1C[C@]2(COC)[C@H](O)C[C@H](OC)[C@]34C1C([C@H](OC)[C@H]23)[C@]1(OC(C)=O)[C@H]2[C@@H](OC(=O)c3ccccc3)[C@](O)(C[C@H]24)[C@@H](OC)[C@@H]1O` [ACONITINE] was tested, and the “IC50 of cell viability” value was > 46 µM.
With `CCOc1ccc2nc3cc(N)ccc3c(N)c2c1` [ACRINOL] the “IC50 of cell viability” value was > 46 µM.
With `CC(C)(C)C(=O)OCOP(=O)(COCCn1cnc2c(N)ncnc21)OCOC(=O)C(C)(C)C` [ADEFOVIR DIPIVOXIL] the “IC50 of cell viability” value was > 46 µM.
`Nc1ncnc2c1ncn2[C@@H]1O[C@H](COP(=O)(O)OP(=O)(O)OP(=O)(O)O)[C@@H](O)[C@H]1O` [ADENOSINE TRIPHOSPHATE] was tested, and the “IC50 of cell viability” value was > 46 µM.
`Nc1ncnc2c1ncn2[C@@H]1O[C@H](COP(=O)(O)O)[C@@H](O)[C@H]1O` [ADENOSINE-5'-MONOPHOSPHATE (AMP)] was tested, and the “IC50 of cell viability” value was > 46 µM.
For `Nc1ncnc2c1ncn2[C@@H]1O[C@H](CO)[C@@H](O)[C@H]1O` [ADENOSINE], the “IC50 of cell viability” value was > 46 µM.
For `CCN(CC)CCOC(=O)C(c1ccccc1)c1ccccc1.Cl` [ADIPHENINE HYDROCHLORIDE], the “IC50 of cell viability” value was > 46 µM.
`O=C(C[S+]([O-])C(c1ccccc1)c1ccccc1)NO` (stereo unspecified) [ADRAFINILUM] was tested, and the “IC50 of cell viability” value was > 46 µM.
`CCN(CC)CC1CCCCN1CC(=O)N1c2ccccc2C(=O)Nc2cccnc21` (stereo unspecified) [AF-DX 116] was tested, and the “IC50 of cell viability” value was > 46 µM.
For `CC(=O)NC(Cc1ccccc1)C(=O)O` (stereo unspecified) [AFALANINUM], the “IC50 of cell viability” value was > 46 µM.
With `Cc1ccccc1N1C(=O)c2cc(N)ccc2N/C1=C\F` [AFLOQUALONE] the “IC50 of cell viability” value was > 46 µM.
`CCCCCCCCCCCCCCCCC(C(=O)O)C(O)(CC(=O)O)C(=O)O` (stereo unspecified) [AGARICINUM] was tested, and the “IC50 of cell viability” value was > 46 µM.
In the case of `NC(=O)c1ncn(C2OC(CO)C(O)C2O)c1N` (stereo unspecified) [AICAR], the “IC50 of cell viability” value is reported as > 46 µM.
For `NC(=O)c1ccc([N+](=O)[O-])cc1Cl` [AKLOMIDE], the “IC50 of cell viability” value was > 46 µM.
In the case of `CC(=O)SC[C@@H](C)C(=O)N1CCC[C@H]1C(=O)N[C@@H](Cc1ccccc1)C(=O)O` [ALACEPRIL], the “IC50 of cell viability” value is reported as > 46 µM.
For `C[C@H](N)C(=O)N[C@@H](C)P(=O)(O)O` [ALAFOSFALINUM], the “IC50 of cell viability” value was > 46 µM.
With `CC(N)C(=O)OC(C)(C)Cc1ccc(Cl)cc1` (stereo unspecified) [ALAPROCLATE] the “IC50 of cell viability” value was > 46 µM.
For `C=CCN1C(=O)C(CC(C)C)NC1=S` (stereo unspecified) [ALBUTOINUM], the “IC50 of cell viability” value was > 46 µM.
In the case of `Cc1ccccc1C(=O)N1CC/C(=N/OS(=O)(=O)[O-])c2ccc(Cl)cc21` [ALILUSEM POTASSIUM], the “IC50 of cell viability” value is reported as > 46 µM.
For `O=C1c2ccccc2C(=O)c2c1ccc(O)c2O` [ALIZARIN], the “IC50 of cell viability” value was > 46 µM.
In the case of `C=CCOc1cc(Cl)ccc1C(=O)NCCN(CC)CC` [ALLOCLAMIDE HYDROCHLORIDE], the “IC50 of cell viability” value is reported as > 46 µM.
For `CN(C)CCc1c[nH]c2ccc(C[S+](=O)([O-])N3CCCC3)cc12` [ALMOTRIPTAN], the “IC50 of cell viability” value was > 46 µM.
`Cc1[nH]cnc1CN1CCc2c(c3ccccc3n2C)C1=O` [ALOSETRON HYDROCHLORIDE] was tested, and the “IC50 of cell viability” value was > 46 µM.
With `C=CCc1ccccc1OCC(O)CNC(C)C` (stereo unspecified) [ALPRENOLOL] the “IC50 of cell viability” value was > 46 µM.
With `C=CCSCC1Nc2cc(Cl)c([S+](N)(=O)[O-])cc2[S+](=O)([O-])N1` (stereo unspecified) [ALTHIAZIDE] the “IC50 of cell viability” value was > 46 µM.
`NC12CC3CC(CC(C3)C1)C2` [AMANTIDINE] was tested, and the “IC50 of cell viability” value was > 46 µM.
`CC[N+](CC)(CCNC(=O)C(=O)NCC[N+](CC)(CC)Cc1ccccc1Cl)Cc1ccccc1Cl` [AMBENONIUM] was tested, and the “IC50 of cell viability” value was > 46 µM.
